# Experimental data as given in US10918625B2, “Use of sesquiterpene derivative” (KOOKMIN UNIVERSITY INDUSTRY ACADEMY COOPERATION FOUNDATION, priority 2016, dated 2021).
# Tests used:
# Wnt/β-catenin pathway [1] = assay: Wnt/β-catenin pathway inhibitory activity: cytoplasmic β-catenin by western blot in Wnt3a-CM treated HEK293 cells; format: cell-based, human; settings: Wnt3a-CM, 15 hours
# Procedure: HEK293 cells (human embryonic kidney cells) and Wnt3a-secreting L cells were obtained from the ATCC (American Type Culture Collection, USA) and were cultured in DMEM (Dulbecco's modified Eagle's medium) supplemented with 10% FBS (fetal bovine serum), 120 μg/mL penicillin and 200 μg/mL streptomycin.
# Wnt3a-CM (Wnt3a-conditioned medium) was prepared by culturing Wnt3a-secreting L cells in DMEM supplemented with 10% [v/v] FBS (fetal bovine serum) for 4 days and recovering the DMEM medium and sterilizing by filtering through a 0.22-μm filter. Then, after adding a fresh DMEM (supplemented with 10% [v/v] FBS) medium to the cells and culturing for 3 days, the medium was recovered by the same method and then combined with the previously prepared Wnt3a-CM.
# (§1) After treating HEK293 cells with the Wnt3a-CM, the compound of Preparation Example 30 or the compound of Preparation Example 31 (10, 20 or 40 μM) for 15 hours and extracting cytoplasmic proteins from the cells, the amount of β-catenin regulating the CRT (β-catenin response transcription) of the Wnt/β-catenin pathway in the cells was investigated by western blot using a β-catenin antibody (BD Transduction Laboratories, USA) and the ECL system (Santa Cruz Biotechnology).
# as §1, with “The Wnt/β-catenin pathway inhibitory activity of the Preparation Example 32 compound was evaluated in the same manner as in Example <1-1>. Briefly, after” for “After”, “Wnt3a-CM” for “Wnt3a-CM, the compound of Preparation Example 30”, “32 (10 or” for “31 (10,”, “20” for “20 or 40”
# [2] = system: macular edema-induced mouse model; assay: Inhibition of vascular leakage in the retina, intraperitoneal administration, laser-induced macular edema mouse model (OCT); format: in vivo, C57BL/6 mouse; settings: 1 mg/kg intraperitoneal every day for 7 days, OCT on day 6, vs vehicle
# Procedure: After inducing macular edema in a C57BL/6 mouse and intraperitoneally administering the compound of Preparation Example 33, vascular leakage in the retina was investigated.
# Briefly, after anesthetizing an 8-to-12-week-old C57BL/6 mouse with Zoletil (40 mg/kg) and xylazine (5 mg/kg), the pupil was dilated with 1% tropicamide. Hydroxypropylmethyl cellulose was dropped onto the eye and a microscope cover glass was used as a contact lens. Then, 3-5 laser burns were made in the space between the retinal blood vessels around the optic disc (Zeiss 1149-630, laser power 200 mW, duration 0.05 s, spot size 50 μm).
# After the laser irradiation, 10 mL/kg of distilled water as a vehicle was intraperitoneally administered to a control group (FIG. 5, A) and 1 mg/kg of the compound of Preparation Example 33 (dissolved distilled water) was intraperitoneally administered to a test group (FIG. 5, B) every day for 7 days. On day 6, 10% sodium fluorescein was intraperitoneally administered and optical coherence tomography was conducted.
# C57BL/6J mice = assay: Tissue toxicity, long-term (8 weeks) administration: blood GPT, BUN, liver and kidney sections; format: in vivo, C57BL/6J mouse; settings: different doses for 8 weeks
# Procedure: A long-term toxicity test was conducted by administering the compound of Preparation Example 33 at different doses to C57BL/6J mice (10 mice per group) for 8 weeks. In order to investigate the effect on different organs (tissues) of the animals, blood was taken from the animals of the test group to which the compound of Preparation Example 33 was administered and the control group to which only PEG 400:Tween 80:ethanol (8:1:1, v:v:v) was administered 8 weeks later and the level of GPT (glutamate-pyruvate transferase) and BUN (blood urea nitrogen) in the blood was measured using Select E (Vital Scientific NV, Netherlands).
# [3] = system: macular edema-induced mouse model; assay: Inhibition of vascular leakage in the eye, intravitreal administration, laser-induced macular edema mouse model (FA and OCT); format: in vivo, C57BL/6 mouse; settings: 100 ng/0.5 μL in DMSO intravitreal 24 hours after laser, read one week later, vs DMSO control group
# Procedure: Macular edema was induced in a 10-week-old C57BL/6 mouse by irradiating a laser. After anesthetizing the mouse with ketamine (70 mg/kg) and xylazine (30 mg/kg), the pupil was dilated with 1% tropicamide. Hydroxypropylmethyl cellulose was dropped onto the eye and a microscope cover glass was used as a contact lens. Then, five laser burns were made in the space between the blood vessels around the optic disc (Zeiss 1149-630, laser power 180 mW, duration 0.1 s, spot size 50 μm). In this state, the blood vessel size and permeability were investigated by fluorescein angiography (FA) and optical coherence tomography (OCT). 24 hours after the laser irradiation, 0.5 μL of DMSO (dimethyl sulfoxide) was injected to a control group and 100 ng/0.5 μL of the Preparation Example 33 compound dissolved in DMSO was injected to a test group, into the vitreous cavity of the mouse. One week later, fluorescein angiography and optical coherence tomography were conducted again.
# Wnt/β-catenin pathway [4] = assay: Wnt/β-catenin pathway inhibitory activity: cytoplasmic β-catenin by western blot in Wnt3a-CM treated ARPE-19 cells; format: cell-based; settings: ARPE-19 human retinal epithelial cells, Wnt3a-CM, compound 3 or 6 μM, 24 hours
# Procedure: ARPE-19 cells (human retinal epithelial cells) and Wnt3a-secreting L cells were obtained from the ATCC (American Type Culture Collection, USA) and were cultured in DMEM (Dulbecco's modified Eagle's medium) supplemented with 10% FBS, 120 μg/mL penicillin and 200 μg/mL streptomycin. Wnt3a-CM (Wnt3a-conditioned medium) was prepared by culturing Wnt3a-secreting L cells in DMEM supplemented with 10% [v/v] FBS (fetal bovine serum) for 4 days and recovering the DMEM medium and sterilizing by filtering through a 0.22-μm filter. Then, after adding fresh DMEM (supplemented with 10% [v/v] FBS) to the cells and culturing for 3 days, Wnt3a-CM was recovered.
# as §1, with “ARPE-19” for “HEK293”, “33” for “30”, “34 (3” for “31 (10, 20”, “6” for “40”, “24” for “15”
# [5] = In vivo PK after oral administration: concentration in blood plasma and eye (LC-MS/MS); set-up: species or system ICR mouse; settings: 10 mg/kg oral gavage, plasma and eye at 0.5 hour and 2 hours
# Procedure: Male ICR mice (8 weeks, 30-35 g) were purchased from Samtako Co. (Osan, Korea). The test animals were acclimatized for a week under the following conditions: temperature 23±2° C., relative humidity 55±10%, illumination intensity 150-300 lux, ventilation frequency 15-20 times/h, illumination cycle 12 h (07:00-19:00). All the animal experiments were approved by the Animal Care and Use Committee of Kyungpook National University (Study No. 2016-0043).
# The mice were fasted for 12 hours before drug administration. Feed and water were supplied ad libitum. The compound of Preparation Example 33 was dissolved in DW:PEG 400 (=60:40 (v/v)) and administered by oral gavage at a dose of 10 mg/kg.
# 0.5 hour and 2 hours after the oral administration, blood samples were taken from the abdominal artery. […] of a plasma sample obtained after centrifuging the blood sample at 13,000 rpm for 5 minutes was stored at −80° C. until use for analysis. […]
# In order to investigate the distribution of the compound of the present disclosure in the target tissue, the compound was orally administered at a dose of 10 mg/kg and the concentration of the compound in the blood plasma and eye was measured. The sampling times were determined as 0.5 hour and 2 hours based on the peak plasma concentration and the distribution phase. […]
smiles,measurement,setting,value
C=C1CCCC2C1(C)CCC(C)C2(C)CC1=C(O)C(=O)C=C(NCCc2ccccc2)C1=O (stereo not drawn) [Preparation Example 32],level of β-catenin in the cytoplasm (western blot),Wnt/β-catenin pathway [1]; compound 10 or 20 μM,decreased level of β-catenin
"C=C1CCC[C@H]2[C@](C)(CC3=C(O)C(=O)C=C(OC)C3=O)[C@@H](C)CC[C@]12C [Preparation Example 33, 3-[[(1R,2S,4aS,8aS)-1,2,4a-trimethyl-5-methylidene-3,4,6,7,8,8a-hexahydro-2H-naphthalen-1-yl]methyl]-2-hydroxy-5-methoxycyclohexa-2,5-diene-1,4-dione]",vascular leakage (optical coherence tomography),[2],inhibited vascular leakage
same,liver and kidney tissue sections under optical microscope,C57BL/6J mice,no special abnormality
same,"BUN (blood urea nitrogen) in the blood, control group vs test group",C57BL/6J mice; related with kidney toxicity,no significant difference
same,"GPT (glutamate-pyruvate transferase) in the blood, control group vs test group",C57BL/6J mice; related with liver toxicity,no significant difference
same,vascular leakage (fluorescein angiography and optical coherence tomography),[3],distinctly decreased vascular leakage
same,level of β-catenin in the cytoplasm (western blot),Wnt/β-catenin pathway [4],decreased level of β-catenin
same,distribution in the eye after oral administration,[5],highly targeted in the eye
same,permeability for the target tissue (eye),[5],high permeability
"C=C1CCCC2C1(C)CCC(C)C2(C)CC1=C2OC(C)(C)N=C2C=C(OC)C1=O [Preparation Example 30, 18-methoxy-22,22-dimethyl-16-[{(5R,8S,9R,10S)-5,8,9-trimethyl-4-methylenedecahydronaphthalen-9-yl}methyl]benzo[d]-oxazol-17(2H)-one]",level of β-catenin in the cytoplasm (western blot),"Wnt/β-catenin pathway [1]; compound 10, 20 or 40 μM",decreased level of β-catenin
"C=C1CCC[C@@H]2[C@@](C)(CC3=C(O)C(=O)C=C(OCC)C3=O)[C@H](C)CC[C@@]12C [Preparation Example 34, 3-[[(1S,2R,4aR,8aR)-1,2,4a-trimethyl-5-methylidene-3,4,6,7,8,8a-hexahydro-2H-naphthalen-1-yl]methyl]-5-ethoxy-2-hydroxycyclohexa-2,5-diene-1,4-dione]",level of β-catenin in the cytoplasm (western blot),Wnt/β-catenin pathway [4],decreased level of β-catenin
"C=C1CCCC2C1(C)CCC(C)C2(C)Cc1c(O)c(OC)cc2nc(C)oc12 [Preparation Example 31, 18-methoxy-22-methyl-16-[{(5S,8S,9R,10S)-5,8,9-trimethyl-4-methylenedecahydronaphthalen-9-yl}methyl]benzo[d]-oxazol-17-ol]",level of β-catenin in the cytoplasm (western blot),"Wnt/β-catenin pathway [1]; compound 10, 20 or 40 μM",decreased level of β-catenin
